{"source": "ChEMBL document CHEMBL1148430", "about": "“Synthesis of novel 2-nitroimidazole-tethered tricyclic quinolines, bearing a second heteroatom, and their in vitro evaluation as hypoxia-selective cytotoxins and radiosensitizers” (Bioorg Med Chem Lett, 2004)", "key": {"[1]": {"experiment": "In vitro therapeutic index of compound was measured inV79 cells", "type": "cell-based, Cricetulus griseus", "conditions": "chinese hamster, V79 cells; read-out: T.I."}, "V79 [2]": {"test_system": "V79", "experiment": "Cytotoxicity of compound was measured against suspended V79 cells under aerobic conditions in clonogenic assay", "type": "functional, Cricetulus griseus"}, "[3]": {"experiment": "Concentration required to reduce fluorescence in ethidium bromide displacement assay using EB-DNA complex"}, "[4]": {"experiment": "Ratio (HS) of CT50 values in aerobic condition to hypoxic condition (in N2 presence) given as CT50(A)/CT50(H)", "type": "functional"}, "[5]": {"experiment": "Partition coefficient in octanol/water", "type": "physicochemical"}, "V79 [6]": {"test_system": "V79", "experiment": "Cytotoxicity of compound was measured against suspended V79 cells under hypoxic conditions in clonogenic assay", "type": "functional, Cricetulus griseus"}}, "data": [{"smiles": "Cl.O=[N+]([O-])c1nccn1CCCNc1c2c(nc3ccccc13)CCSC2", "values": [{"measurement": "selectivity ratio", "setting": "[1]", "result": 15}, {"measurement": "CT50", "setting": "V79 [2]", "result": 580, "unit": "µM"}, {"measurement": "C50", "setting": "[3]", "result": 58, "unit": "µM"}, {"measurement": "Ratio", "setting": "[4]", "result": 9}, {"measurement": "PC", "setting": "[5]", "result": 0.4}, {"measurement": "CT50", "setting": "V79 [6]", "result": 68, "unit": "µM"}]}, {"smiles": "CN1CCc2nc3ccccc3c(NCCCn3ccnc3[N+](=O)[O-])c2C1.Cl", "values": [{"measurement": "selectivity ratio", "setting": "[1]", "result": 7}, {"measurement": "CT50", "setting": "V79 [2]", "result": 426, "unit": "µM"}, {"measurement": "C50", "setting": "[3]", "result": 45, "unit": "µM"}, {"measurement": "Ratio", "setting": "[4]", "result": 2.2}, {"measurement": "PC", "setting": "[5]", "result": 0.41}]}, {"smiles": "Cl.O=[N+]([O-])c1nccn1CCCNc1c2ccccc2nc2ccccc12", "values": [{"measurement": "selectivity ratio", "setting": "[1]", "result": 11}, {"measurement": "CT50", "setting": "V79 [2]", "result": 84, "unit": "µM"}, {"measurement": "C50", "setting": "[3]", "result": 9, "unit": "µM"}, {"measurement": "Ratio", "setting": "[4]", "result": 5.5}, {"measurement": "PC", "setting": "[5]", "result": 0.07}, {"measurement": "CT50", "setting": "V79 [6]", "result": 15, "unit": "µM"}]}, {"smiles": "Cl.O=[N+]([O-])c1nccn1CCCNc1c2c(nc3ccccc13)CCCC2", "values": [{"measurement": "selectivity ratio", "setting": "[1]", "result": 20}, {"measurement": "CT50", "setting": "V79 [2]", "result": 360, "unit": "µM"}, {"measurement": "C50", "setting": "[3]", "result": 58, "unit": "µM"}, {"measurement": "Ratio", "setting": "[4]", "result": 11}, {"measurement": "PC", "setting": "[5]", "result": 0.14}, {"measurement": "CT50", "setting": "V79 [6]", "result": 33, "unit": "µM"}]}]}
